Source: ChEMBL document CHEMBL2413072, “Synthesis and in vitro anticancer studies of novel C-2 arylidene congeners of lantadenes” (2013)

Experiments:
Assay type in all cases: functional
[1] = system: BT-549; assay: Growth inhibition of human BT549 cells assessed as cell growth at 10^-7 M by sulforhodamine B assay; details: read-out: Activity
[2] = system: IGROV-1; assay: Growth inhibition of human IGROV1 cells assessed as cell growth at 10^-6 M by sulforhodamine B assay; details: read-out: Activity
[3] = system: 786-0; assay: Growth inhibition of human 786-0 cells by sulforhodamine B assay
[4] = system: HOP-62; assay: Growth inhibition of human HOP62 cells assessed as cell growth at 10^-4 M by sulforhodamine B assay; details: read-out: Activity
[5] = system: NCI-H460; assay: Growth inhibition of human NCI-H460 cells assessed as cell growth at 10^-6 M by sulforhodamine B assay; details: read-out: Activity
[6] = system: HCT-15; assay: Growth inhibition of human HCT15 cells assessed as cell growth at 10^-4 M by sulforhodamine B assay; details: read-out: Activity
[7] = Growth inhibition of human HCC2998 cells assessed as cell growth at 10^-4 M by sulforhodamine B assay; details: HCC 2998, read-out: Activity
[8] = system: BT-549; assay: Growth inhibition of human BT549 cells assessed as cell growth at 10^-6 M by sulforhodamine B assay; details: read-out: Activity
[9] = system: M14; assay: Growth inhibition of human M14 cells by sulforhodamine B assay
[10] = system: OVCAR-3; assay: Growth inhibition of human OVCAR3 cells assessed as cell growth at 10^-4 M by sulforhodamine B assay; details: read-out: Activity
[11] = system: HOP-62; assay: Growth inhibition of human HOP62 cells assessed as cell growth at 10^-8 M by sulforhodamine B assay; details: read-out: Activity
[12] = system: SK-MEL-2; assay: Growth inhibition of human SK-MEL-2 cells assessed as cell growth at 10^-7 M by sulforhodamine B assay; details: read-out: Activity
[13] = system: SNB-19; assay: Growth inhibition of human SNB19 cells by sulforhodamine B assay
[14] = system: SK-MEL-5; assay: Growth inhibition of human SK-MEL-5 cells assessed as cell growth at 10^-8 M by sulforhodamine B assay; details: read-out: Activity
[15] = system: T47D; assay: Growth inhibition of human T47D cells assessed as cell growth at 10^-4 M by sulforhodamine B assay; details: read-out: Activity
[16] = system: MOLT-4; assay: Growth inhibition of human MOLT4 cells assessed as cell growth at 10^-6 M by sulforhodamine B assay; details: read-out: Activity
[17] = system: MDA-MB-231; assay: Growth inhibition of human MDA-MB-231 cells by sulforhodamine B assay
[18] = system: NCI-H522; assay: Growth inhibition of human NCI-H522 cells assessed as cell growth at 10^-4 M by sulforhodamine B assay; details: read-out: Activity
[19] = system: LOX IMVI; assay: Growth inhibition of human LOXIMVI cells assessed as cell growth at 10^-8 M by sulforhodamine B assay; details: read-out: Activity
[20] = system: 786-0; assay: Growth inhibition of human 786-0 cells assessed as cell growth at 10^-8 M by sulforhodamine B assay; details: read-out: Activity
[21] = system: Malme-3M; assay: Growth inhibition of human MALME-3M cells assessed as cell growth at 10^-7 M by sulforhodamine B assay; details: read-out: Activity
[22] = system: M14; assay: Growth inhibition of human M14 cells assessed as cell growth at 10^-8 M by sulforhodamine B assay; details: read-out: Activity
[23] = system: CCRF-CEM; assay: Growth inhibition of human CCRF-CEM cells assessed as cell growth at 10^-6 M by sulforhodamine B assay; details: read-out: Activity
[24] = system: HCT-116; assay: Growth inhibition of human HCT116 cells by sulforhodamine B assay
[25] = system: CCRF-CEM; assay: Growth inhibition of human CCRF-CEM cells by sulforhodamine B assay
[26] = system: OVCAR-5; assay: Growth inhibition of human OVCAR5 cells assessed as cell growth at 10^-7 M by sulforhodamine B assay; details: read-out: Activity
[27] = system: HL-60(TB); assay: Growth inhibition of human HL-60(TB) cells assessed as cell growth at 10^-6 M by sulforhodamine B assay; details: read-out: Activity
[28] = system: COLO 205; assay: Growth inhibition of human COLO205 cells by sulforhodamine B assay
[29] = system: COLO 205; assay: Growth inhibition of human COLO205 cells assessed as cell growth at 10^-6 M by sulforhodamine B assay; details: read-out: Activity
[30] = system: SF-539; assay: Growth inhibition of human SF539 cells assessed as cell growth at 10^-6 M by sulforhodamine B assay; details: read-out: Activity
[31] = system: SN12C; assay: Growth inhibition of human SN12C cells assessed as cell growth at 10^-4 M by sulforhodamine B assay; details: read-out: Activity
[32] = system: CCRF-CEM; assay: Growth inhibition of human CCRF-CEM cells assessed as cell growth at 10^-7 M by sulforhodamine B assay; details: read-out: Activity
[33] = system: HCT-15; assay: Growth inhibition of human HCT15 cells by sulforhodamine B assay
[34] = system: MOLT-4; assay: Growth inhibition of human MOLT4 cells assessed as cell growth at 10^-7 M by sulforhodamine B assay; details: read-out: Activity
[35] = system: CAKI-1; assay: Growth inhibition of human CAKI-1 cells by sulforhodamine B assay
[36] = system: U-251; assay: Growth inhibition of human U251 cells assessed as cell growth at 10^-7 M by sulforhodamine B assay; details: read-out: Activity
[37] = system: SF-295; assay: Growth inhibition of human SF295 cells assessed as cell growth at 10^-8 M by sulforhodamine B assay; details: read-out: Activity
[38] = system: OVCAR-3; assay: Growth inhibition of human OVCAR3 cells assessed as cell growth at 10^-8 M by sulforhodamine B assay; details: read-out: Activity
[39] = system: RXF 393; assay: Growth inhibition of human RXF393 cells assessed as cell growth at 10^-8 M by sulforhodamine B assay; details: read-out: Activity
[40] = read-out: LC50 (the source's name)
[41] = read-out: pLC50 (the source's name) (converted)

CC1(C)C[C@@H](O)[C@]2(C(=O)O)CC[C@]3(C)C(=CC[C@@H]4[C@@]5(C)C/C(=C\C=C\c6ccccc6)C(=O)C(C)(C)[C@@H]5CC[C@]43C)[C@@H]2C1
growth at 0.1 µM [1]: 103%
growth at 1 µM [2]: 113%
GI50 ([3]; read-out: GI50): 3.44 µM
CC50 [3, 40]: 43.1 µM
TGI ([3]; read-out: TGI): 12.8 µM
GI50 ([3]; read-out: pGI50 (converted)): 3.47 µM
CC50 [3, 41]: 42.7 µM
TGI ([3]; read-out: pTGI (converted)): 12.9 µM
growth at 100 µM [4]: -57%
growth at 1 µM [5]: 97%
growth at 100 µM [6]: -80%
growth at 100 µM [7]: -93%
growth at 1 µM [8]: 100%
GI50 ([9]; read-out: GI50): 3.74 µM
CC50 [9, 40]: 52 µM
TGI ([9]; read-out: TGI): 15.8 µM
GI50 ([9]; read-out: pGI50 (converted)): 3.72 µM
CC50 [9, 41]: 52.5 µM
TGI ([9]; read-out: pTGI (converted)): 15.8 µM
growth at 100 µM [10]: -90%
growth at 0.01 µM [11]: 93%
growth at 0.1 µM [12]: 91%
GI50 ([13]; read-out: GI50): 4.03 µM
CC50 [13, 40]: 44.5 µM
TGI ([13]; read-out: TGI): 16.5 µM
GI50 ([13]; read-out: pGI50 (converted)): 4.07 µM
CC50 [13, 41]: 44.7 µM
TGI ([13]; read-out: pTGI (converted)): 16.6 µM
growth at 0.01 µM [14]: 99%
growth at 100 µM [15]: -45%
growth at 1 µM [16]: 89%
GI50 ([17]; read-out: GI50): 2.02 µM
CC50 [17, 40]: 12.5 µM
TGI ([17]; read-out: TGI): 4.68 µM
GI50 ([17]; read-out: pGI50 (converted)): 2.04 µM
CC50 [17, 41]: 12.6 µM
TGI ([17]; read-out: pTGI (converted)): 4.68 µM
growth at 100 µM [18]: -86%
growth at 0.01 µM [19]: 97%
growth at 0.01 µM [20]: 101%
growth at 0.1 µM [21]: 93%
growth at 0.01 µM [22]: 97%
growth at 1 µM [23]: 96%
GI50 ([24]; read-out: GI50): 2.89 µM
LC50 ([24]; read-out: LC50): 82.7 µM
TGI ([24]; read-out: TGI): 11.2 µM
GI50 ([24]; read-out: pGI50 (converted)): 2.88 µM
LC50 ([24]; read-out: pLC50 (converted)): 83.2 µM
TGI ([24]; read-out: pTGI (converted)): 11.2 µM
GI50 ([25]; read-out: GI50): 2.79 µM
CC50 [25, 40]: > 100 µM
TGI ([25]; read-out: TGI): 8.51 µM
GI50 ([25]; read-out: pGI50 (converted)): 2.82 µM
CC50 [25, 41]: > 100 µM
TGI ([25]; read-out: pTGI (converted)): 8.51 µM
growth at 0.1 µM [26]: 92%
growth at 1 µM [27]: 112%
GI50 ([28]; read-out: GI50): 1.97 µM
LC50 ([28]; read-out: LC50): 6.36 µM
TGI ([28]; read-out: TGI): 3.54 µM
GI50 ([28]; read-out: pGI50 (converted)): 2 µM
LC50 ([28]; read-out: pLC50 (converted)): 6.31 µM
TGI ([28]; read-out: pTGI (converted)): 3.55 µM
growth at 1 µM [29]: 108%
growth at 1 µM [30]: 90%
growth at 100 µM [31]: -92%
growth at 0.1 µM [32]: 102%
GI50 ([33]; read-out: GI50): 3.22 µM
LC50 (50% lethal concentration) ([33]; read-out: LC50): 45.1 µM
TGI ([33]; read-out: TGI): 11.9 µM
GI50 ([33]; read-out: pGI50 (converted)): 3.24 µM
LC50 (50% lethal concentration) ([33]; read-out: pLC50 (converted)): 44.7 µM
TGI ([33]; read-out: pTGI (converted)): 12 µM
growth at 0.1 µM [34]: 97%
GI50 ([35]; read-out: GI50): 3.57 µM
CC50 [35, 40]: > 100 µM
TGI ([35]; read-out: TGI): 17.7 µM
GI50 ([35]; read-out: pGI50 (converted)): 3.55 µM
CC50 [35, 41]: > 100 µM
TGI ([35]; read-out: pTGI (converted)): 17.8 µM
growth at 0.1 µM [36]: 95%
growth at 0.01 µM [37]: 99%
growth at 0.01 µM [38]: 102%
growth at 0.01 µM [39]: 94%
